Experimental data: publication PMC12072186, “A Novel Small Molecule Enhances Stable Dopamine Delivery to the Brain in Models of Parkinson’s Disease” (International Journal of Molecular Sciences, 2025)
Entries after “also recorded” stand apart in the source; their conditions may differ. Like-named read-outs stand apart in the source and are kept apart here.

What was measured:
[1] = test system: caspase-3 activity; assay: Tissue toxicity via caspase-3 activity assay; format: in vivo; settings: liver, brain, kidney, lung, spleen, heart, serum, small intestine; young TgA53T mice; vs naïve, DMSO and D5
Description: We further verified cell death via caspase-3 activity assays of the liver, brain, kidney, lung, spleen, heart, serum, and small intestine in young TgA53T mice (6–7 months old).
(§1) Tissue toxicity was assessed in young (6–7-month-old) and old (12–13-month-old) A53T mice. The mice received daily i.p. escalating doses of Pegasus or control D5 (tetracycline derivative with no DA) vs. DMSO of 10, 25, 50, and 100 mg/kg for 4 days with each dose up to 16 days, and tissues were analyzed via caspase-3 activity. The caspase-3 activity assay (EnzChek® Invitrogen, Waltham, MA, USA) was conducted according to manufacturer’s protocols as we previously described.

[2] = test system: human alpha-synuclein; assay: Human alpha-synuclein ELISA of brain lysates; format: in vivo, mouse; settings: brain lysates of old (11–12-month-old) TgA53T mice, vs DMSO
Description: (§2) The concentration of CNS alpha-synuclein via ELISA was reduced in the brain lysates of old (11–12-month-old) TgA53T mice treated with Pegasus compared to DMSO-treated controls (Figure 5I).
The levels of DA and its metabolite HVA were measured using a commercially available ELISA (Cat No. MBS269234 and Cat# MBS1601074, MyBiosource, San Diego, CA, USA) on serum and brain tissue soluble extracts. Human alpha-synuclein was measured via a human-specific ELISA (Cat# 448607, BioLegend, San Diego, CA, USA) according to the manufacturer’s protocol.

[3] = test system: TgA53T mice; assay: Elevated plus maze test in TgA53T mice; format: in vivo, mouse; settings: 50 mg/kg i.p., vs DMSO
[4] = test system: DA and its metabolite HVA; assay: DA and HVA ELISA on serum and brain extracts of TgA53T mice; format: in vivo, mouse; settings: 50 mg/kg, 12–13-month-old TgA53T mice, vs DMSO
[5] = Pharmacokinetics after single i.p. injection, serum and brain (UHPLC-MS/MS); format: in vivo, mouse; settings: for Kp: intraperitoneal; for half-life / AUC(0-inf): ip
[6] = test system: TgA53T mice; assay: Rotarod test in TgA53T mice; format: in vivo, mouse
[7] = test system: human alpha-synuclein; assay: Western blot of soluble brain extracts for alpha-synuclein; format: in vivo, mouse; settings: young TgA53T mice (6–7 months old), vs D5 and DMSO
Description: as §2
To extract the soluble proteins, whole brain tissues, which excluded the olfactory bulb, cerebellum, and spinal cord, were isolated and homogenized in 1 × STEN buffer (50 mM Tris (pH 7.6), 150 mM NaCl, 2 mM EDTA, 0.2% NP-40, 0.2% BSA, 20 mM PMSF, and protease cocktail inhibitor). The proteins were quantified and normalized for WB (and ELISA) on 4–12% Criterion™ XT Bis-Tris Protein Gel (Cat No: 3450125, Bio-rad, Hercules, CA, USA). Beta-actin (β-actin) was probed (1:3000) with monoclonal antibody (Cat No: MAB1501R, Emdmillipore, Danvers, MA, USA). Human alpha-synuclein was probed (1:4000) with monoclonal antibody (Cat No: AHB0261, Thermo Fisher, Waltham, MA, USA). Human oligomeric alpha-synuclein was probed (1:500) with anti-alpha-synuclein oligomer-specific syn33 antibody (Cat No: ABN2265, Sigma-Aldrich, St. Louis, MO, USA). WBs were quantified by densitometry using Quantity One 4.6.3 software (Bio Rad, Hercules, CA, USA) and Image J version 1.54m.

[8] = test system: TgA53T mice; assay: Tolerated dose, dose escalation study; format: in vivo
Description: Pegasus synthesis and the D5 control derivative of tetracycline were previously described. Pegasus is a 652.2 Da small molecule that consists of one DA conjugated to tetracycline via a molecular linker (Figure 1A). […] We determined a tolerated dose of Pegasus in young (6–7 months old) and old (11–12 months old) TgA53T mice (IP, once daily) treated with an ascending dose of Pegasus of 10 mg/kg, 50 mg/kg, and 75 mg/kg for 4 consecutive days (Figure 1B). Pegasus was tolerated up to 75 mg/kg without visible adverse effects. […] We then reduced the dose to 75 mg/kg for another week.
as §1

[9] = test system: MPTP-treated C57BL/6 mice; assay: Grip strength test in MPTP-treated mice; format: in vivo, mouse; settings: MPTP 25 mg/kg i.p. day 1–5; treatment day 1–13; vs MPTP vehicle control
Description: MPTP was injected to male C57BL/6 mice for 5 consecutive days (Figure 4A) to destroy DA neurons, and then the mice were treated with Pegasus alone or Pegasus + Benserazide compared to L-dopa alone or L-Dopa + Benserazide.
From day 1 to day 5, MPTP was administered to all the groups except Naive at a dose of 25 mg/kg, i.p., QD. Treatment with Pegasus alone (50 mg/kg, i.p., BID), a combination of Pegasus 50 mg/kg, BID + Benserazide 10 mg/kg, QD, or a combination of L-Dopa 10 mg/kg, QD + Benserazide 10 mg/kg, QD or standalone L-Dopa 10 mg/kg, QD, started on day 1 and continued until day 13. On day 13, after the first dose of Pegasus, 4 animals/time point from each group were sacrificed at 0.5, 1, 3, 6, and 12 h, and the blood and brains were collected.
The maximal muscle/grip strength of forelimbs was measured using a strength meter.

## C[C@H]1c2ccc(NC(=O)CCC(=O)NCCc3ccc(O)c(O)c3)c(O)c2C(=O)C2=C(O)[C@]3(O)C(=O)C(C(N)=O)=C(O)CC3[C@@H](O)C21 (stereo partly drawn) [Pegasus]
[1]
  Caspase-3 activity in tissues: no apparent toxicity in organs; also recorded: no significant changes in caspase-3 activity
[2]
  Concentration of CNS alpha-synuclein (ELISA): reduced
[3]
  Elevated plus maze total distance traveled: significantly decreased
  Elevated plus maze total number of entries to arms: significantly decreased
  Percentage of entries to open arms: increased
  Percentage of time spent in open arms: increased
[4]
  Concentration of DA in the brain: significantly increases
  Concentration of DA in the serum: significantly increases
  Concentration of HVA in the brain: significantly increases
  Concentration of HVA in the serum: though not HVA in the serum
[5]; C57BL/6 (mouse), Sprague Dawley (rat), mouse and rat brain, read-out: Share of Pegasus detected in the brain
  Kp: < 0.01
[5]; both sexes, C57BL/6, mouse, brain, 50 mg/kg, 50 mg/kg ip, read-out: Brain T1/2 (elimination) (converted)
  half-life: 3.77 h
[5]; both sexes, C57BL/6, mouse, brain, 100 mg/kg, 100 mg/kg ip, read-out: Brain T1/2 (elimination) (converted)
  half-life: 1.82 h
[5]; both sexes, C57BL/6, mouse, brain, 100 mg/kg, across 50 and 100 mg/kg i.p., read-out: AUC0-inf in the brain
  AUC(0-inf): 86.6 to 223 ng·h/mL
[5]; both sexes, C57BL/6, mouse, brain, 100 mg/kg, across 50 and 100 mg/kg i.p., read-out: Elimination half time T1/2 in the brain
  half-life: 1.82 to 3.77 h
[5]; both sexes, C57BL/6, mouse, brain/serum, 50 mg/kg ip, read-out: Ratio of Brain/Serum (%)
  Kp: 0.007
[5]; both sexes, C57BL/6, mouse, brain/serum, 100 mg/kg ip, read-out: Ratio of Brain/Serum (%)
  Kp: 0.006
[5]; both sexes, C57BL/6, mouse, brain/serum, across 50 and 100 mg/kg i.p., read-out: Percentage ratio of brain/serum
  Kp: 0.006 to 0.007
[5]; both sexes, C57BL/6, mouse, brain, 50 mg/kg ip, read-out: Brain Tmax
  Tmax: 2 h
[5]; both sexes, C57BL/6, mouse, brain, 100 mg/kg ip, read-out: Brain Tmax
  Tmax: 1.5 h
[5]; both sexes, C57BL/6, mouse, serum, 50 mg/kg, 50 mg/kg ip, read-out: Serum AUC (0-inf)
  AUC(0-inf): 17200 ng·h/mL
[5]; both sexes, C57BL/6, mouse, serum, 50 mg/kg, 50 mg/kg ip, read-out: Serum T1/2 (elimination) (converted)
  half-life: 4.11 h
[5]; both sexes, C57BL/6, mouse, serum, 100 mg/kg, 100 mg/kg ip, read-out: Serum AUC (0-inf)
  AUC(0-inf): 49100 ng·h/mL
[5]; both sexes, C57BL/6, mouse, serum, 100 mg/kg, 100 mg/kg ip, read-out: Serum T1/2 (elimination) (converted)
  half-life: 4.74 h
[5]; both sexes, C57BL/6, mouse, serum, 100 mg/kg, across 50 and 100 mg/kg i.p., read-out: AUC0-inf in the serum
  AUC(0-inf): 17200 to 49100 ng·h/mL
[5]; both sexes, C57BL/6, mouse, serum, 100 mg/kg, across 50 and 100 mg/kg i.p., read-out: Elimination half time T1/2 in the serum
  half-life: 4.11 to 4.74 h
[5]; both sexes, C57BL/6, mouse, serum, 50 mg/kg ip, read-out: Serum Cmax
  Cmax: 7.97 µM
[5]; both sexes, C57BL/6, mouse, serum, 50 mg/kg ip, read-out: Serum Cmax (ng/ml)
  Cmax: 5190 ng/mL
[5]; both sexes, C57BL/6, mouse, serum, 50 mg/kg ip, read-out: Serum Tmax
  Tmax: 2 h
[5]; both sexes, C57BL/6, mouse, serum, 100 mg/kg ip, read-out: Serum Cmax
  Cmax: 32.7 µM
[5]; both sexes, C57BL/6, mouse, serum, 100 mg/kg ip, read-out: Serum Cmax (ng/ml)
  Cmax: 21300 ng/mL
[5]; both sexes, C57BL/6, mouse, serum, 100 mg/kg ip, read-out: Serum Tmax
  Tmax: 2.5 h
[6]; 50 mg/kg for 3 weeks, TgA53T mice
  Duration of improved Rotarod motor performance: up to 6.5 h
[6]; 1–2 h post-injection, 50 mg/kg i.p. daily, 12–13 months old TgA53T mice, vs DMSO
  Rotarod motor performance: significantly improves motor performance
[6]; 2–3 h, 3–4 h and up to 5–6.5 h post-injection, 50 mg/kg i.p. daily, vs DMSO
  Rotarod motor behavior: continues to improve motor behavior
[7]
  Monomeric alpha-synuclein level (WB): significant decreases
  Oligomeric alpha-synuclein level (WB): significant decreases
[8]; 50 mg/kg, mice
  Visible side effects at 50 mg/kg: no visible side effects
[8]; 100 mg/kg, male and female 12–13 months old mice
  Adverse effects at 100 mg/kg: some scruffiness and weakness at Day16, and one mouse showed gut toxicity at autopsy
[8]; TgA53T, mouse, in vivo, ip, 4 days per dose level
  Tolerated dose: up to 75 mg/kg
[8]; dose reduced to 75 mg/kg for another week
  Adverse effects at autopsy after dose reduction: no adverse effects were detected
[9]
  Forelimb grip strength: significantly reversed back to normal levels
